Experimental data published in patent publication US9302999B2, “Substituted triazoles as herbicides” (E. I. DU PONT DE NEMOURS AND COMPANY, priority 2012, dated 2016).

How the values were obtained:
Type in all cases: in vivo
[1] = system: buckwheat, wild (wild buckwheat, Polygonum convolvulus); test: Test D pre-/postemergence: buckwheat, wild; settings: Postemergence; for Plant response rating, Buckwheat, Wild: scale 0 to 100
Source text: (§1) Seeds of plant species selected from bluegrass (annual bluegrass, Poa annua), blackgrass (Alopecurus myosuroides), canarygrass (Phalaris minor), chickweed (common chickweed, Stellaria media), galium (catchweed bedstraw, Galium aparine), bromegrass, downy (downy bromegrass, Bromus tectorum), field poppy (Papaver rhoeas), field violet (Viola arvensis), foxtail, green (green foxtail, Setaria viridis), deadnettle (henbit deadnettle, Lamium amplexicaule), ryegrass, Italian (Italian ryegrass, Lolium multiflorum), kochia (Kochia scoparia), lambsquarters (Chenopodium album), oilseed rape (Brassica napus), pigweed (Amaranthus retroflexus), Russian thistle (Salsola iberica), chamomile (scentless chamomile, Matricaria inodora), speedwell (bird's-eye speedwell, Veronica persica), barley, spring (spring barley, Hordeum vulgare), wheat, spring (spring wheat, Triticum aestivum), buckwheat, wild (wild buckwheat, Polygonum convolvulus), mustard, wild (wild mustard, Sinapis arvensis), oat, wild (wild oat, Avena fatua), radish, wild (wild radish, Raphanus raphanistrum), windgrass (Apera spica-venti), barley, winter (winter barley, Hordeum vulgare), and wheat, winter (winter wheat, Triticum aestivum) were planted into a silt loam soil and treated preemergence with test chemicals formulated in a non-phytotoxic solvent mixture which included a surfactant. At the same time, these same crop and weed species were planted in pots containing the planting medium comprising spaghnum peat moss, vermiculite, wetting agent and starter nutrients and treated with postemergence applications of the test chemicals formulated in the same manner. Plants ranged in height from 2 to 18 cm (1- to 4-leaf stage).
(§2) Treated plants and controls were maintained in a controlled growth environment for 14 to 21 days after which time all species were compared to controls and visually evaluated. Plant response ratings, summarized in Table D, are based on a scale of 0 to 100 where 0 is no effect and 100 is complete control. A dash (-) response means no test result.

[2] = system: woolly cupgrass (Eriochloa villosa); test: Test C pre-/postemergence: woolly cupgrass
Source text: (§3) Seeds of plant species selected from blackgrass (Alopecurus myosuroides), bromegrass, downy (downy bromegrass, Bromus tectorum), foxtail, green (green foxtail, Setaria viridis), ryegrass, Italian (Italian ryegrass, Lolium multiflorum), winter wheat (Triticum aestivum), wild oat (Avena fatua), galium (catchweed bedstraw, Galium aparine), bermudagrass (Cynodon dactylon), surinam grass (Brachiaria decumbens), cocklebur (common cocklebur, Xanthium strumarium), corn (Zea mays), large crabgrass (Digitaria sanguinalis), woolly cupgrass (Eriochloa villosa), foxtail, giant (giant foxtail, Setaria faberii), goosegrass (Eleusine indica), johnsongrass (Sorghum halepense), kochia (Kochia scoparia), lambsquarters (Chenopodium album), morningglory (Ipomoea coccinea), nightshade (eastern black nightshade, Solanum ptycanthum), nutsedge, yellow (yellow nutsedge, Cyperus esculentus), pigweed (Amaranthus retroflexus), ragweed (common ragweed, Ambrosia elation), soybean (Glycine max), common (oilseed) sunflower (Helianthus annuus), Russian thistle (Salsola kali) and velvetleaf (Abutilon theophrasti) were planted into a blend of loam soil and sand and treated preemergence with test chemicals formulated in a non-phytotoxic solvent mixture which included a surfactant.
(§4) At the same time, plants selected from these crop and weed species and also barley (winter barley, Hordeum vulgare), canarygrass (Phalaris minor), chickweed (common chickweed, Stellaria media) windgrass (Apera spica-venti) and deadnettle (henbit deadnettle, Lamium amplexicaule) were planted in pots containing Redi-Earth® planting medium (Scotts Company, 14111 Scottslawn Road, Marysville, Ohio 43041) comprising spaghnum peat moss, vermiculite, wetting agent and starter nutrients and treated with postemergence applications of test chemicals formulated in the same manner. Plants ranged in height from 2 to 18 cm (1- to 4-leaf stage) for postemergence treatments.
as §2, with “greenhouse” for “controlled growth environment”, “13” for “14”, “15 days,” for “21 days”, “C,” for “D,”

[3] = system: Russian thistle (Salsola iberica); test: Test D pre-/postemergence: Russian thistle; settings: Postemergence; for Plant response rating, Russian Thistle: scale 0 to 100
Source text: as §1, §2

[4] = system: bermudagrass (Cynodon dactylon); test: Test C pre-/postemergence: bermudagrass
Procedure, shortened: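 Preemergence on seeds in loam/sand, postemergence on 2–18 cm (1–4-leaf) plants in peat-based medium; compounds in non-phytotoxic solvent with surfactant. After 13–15 days in greenhouse, visual rating versus controls, 0 (no effect) to 100 (complete control).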

[5] = system: surinam grass (Brachiaria decumbens); test: Test C pre-/postemergence: surinam grass
Source text: as §3, §4
as §2, with “greenhouse” for “controlled growth environment”, “13” for “14”, “15 days,” for “21 days”, “C,” for “D,”

[6] = system: chamomile (scentless chamomile, Matricaria inodora); test: Test D pre-/postemergence: chamomile; settings: Postemergence; for Plant response rating, Chamomile: scale 0 to 100
Source text: as §1, §2

[7] = 31 g ai/ha, scale 0 to 100 (0 no effect, 100 complete control)
[8] = 62 g ai/ha, scale 0 to 100 (0 no effect, 100 complete control)
[9] = 125 g ai/ha, scale 0 to 100, 0 no effect, 100 complete control
[10] = 250 g ai/ha, scale 0 to 100 (0 no effect, 100 complete control)
[11] = Postemergence, 31 g ai/ha, scale 0 to 100 (0 no effect, 100 complete control)
[12] = Postemergence, 62 g ai/ha, scale 0 to 100 (0 no effect, 100 complete control)
[13] = Postemergence, 125 g ai/ha, scale 0 to 100, 0 no effect, 100 complete control
[14] = Postemergence, 250 g ai/ha, scale 0 to 100
[15] = Preemergence, 31 g ai/ha, scale of 0 to 100, 0 is no effect, 100 is complete control
[16] = Preemergence, 62 g ai/ha, scale of 0 to 100, 0 is no effect, 100 is complete control
[17] = Preemergence, 125 g ai/ha, scale 0 to 100, 0 no effect, 100 complete control
[18] = Preemergence, 250 g ai/ha, scale 0 to 100, 0 no effect, 100 complete control

SMILES	Plant response rating: Buckwheat, Wild [1, 7]	Plant response rating: Buckwheat, Wild [1, 8]	Plant response rating: Buckwheat, Wild [1, 9]	Plant response rating, Buckwheat, Wild ([1]; 16 g ai/ha)	Plant response rating, Cupgrass, Woolly [2, 11]	Plant response rating, Cupgrass, Woolly [2, 12]	Plant response rating, Cupgrass, Woolly [2, 13]	Plant response rating, Cupgrass, Woolly [2, 14]	Plant response rating: Russian Thistle [3, 8]	Plant response rating: Russian Thistle [3, 9]	Plant response rating, Russian Thistle ([3]; 16 g ai/ha)	Plant response rating, Bermudagrass [4, 11]	Plant response rating, Bermudagrass [4, 12]	Plant response rating, Bermudagrass [4, 14]	Plant response rating, Surinam Grass [5, 11]	Plant response rating, Surinam Grass [5, 12]	Plant response rating, Surinam Grass [5, 13]	Plant response rating, Surinam Grass [5, 14]	Plant response rating: Chamomile [6, 7]	Plant response rating: Chamomile [6, 8]	other results
Cc1nn(-c2ccnc(C(F)(F)F)c2)nc1Cc1ccnc(C(F)(F)F)c1 [Compound 137]	30	65	65	30	45	50	55	90	85	85	30	30	30	45	40	45	45	45	10	15	Plant response rating: Buckwheat, Wild [1, 10]: 80; Plant response rating: Russian Thistle [3, 10]: 90; Plant response rating: Chamomile [6, 9]: 20; Plant response rating: Chamomile [6, 10]: 40; Plant response rating, Chamomile ([6]; 16 g ai/ha): 0
Cc1nn(-c2ccc(F)c(F)c2)nc1Oc1ccnc(C(F)(F)F)c1 [Compound 145]	35	45	85	30	20	25	40	75	98	100	40	10	40	90	25	30	60	75	10	10	Plant response rating, Buckwheat, Wild ([1]; 8 g ai/ha): 15; Plant response rating, Cupgrass, Woolly [2, 15]: 55; Plant response rating, Cupgrass, Woolly [2, 16]: 90; Plant response rating, Cupgrass, Woolly [2, 17]: 95; Plant response rating, Cupgrass, Woolly [2, 18]: 98; Plant response rating: Russian Thistle [3, 7]: 95; Plant response rating, Russian Thistle ([3]; 8 g ai/ha): 10; Plant response rating, Bermudagrass [4, 13]: 75; Plant response rating, Bermudagrass [4, 15]: 98; Plant response rating, Bermudagrass [4, 16]: 98; Plant response rating, Bermudagrass [4, 17]: 98; Plant response rating, Bermudagrass [4, 18]: 98; Plant response rating, Surinam Grass [5, 15]: 35; Plant response rating, Surinam Grass [5, 16]: 55; Plant response rating, Surinam Grass [5, 17]: 100; Plant response rating, Surinam Grass [5, 18]: 100; Plant response rating: Chamomile [6, 9]: 30; Plant response rating, Chamomile ([6]; 8 g ai/ha): 0; Plant response rating, Chamomile ([6]; 16 g ai/ha): 0
